Assay in all cases: NCI tumour cell line growth inhibition, 48 h
Experiment [1] deals with M14 melanoma.
In experiment [2] the test system is TK-10 renal.
Experiment [3] has as its system OVCAR-4 ovarian.
The subject of experiment [4] is EKVX NSCLC.
The subject of experiment [5] is HCC-2998 colon.
Experiment [6] concerns LOX IMVI melanoma.
The test system of experiment [7] is NCI-H23 lung.
Experiment [8] deals with HOP-62 NSCLC.
Experiment [9] concerns OVCAR-8 ovarian.
The test system of experiment [10] is MDA-MB-231 breast.

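Protocol summary: plate cells (96-well), add compound at 5 concentrations, incubate 48 h, interpolate endpoints linearly. GI50 = concentration required for 50% inhibition of growth. At the TGI there is no net growth.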 Bounds are passed on as bounds.

For `CCCC1(CC(=O)O)OCCc2c1[nH]c1ccccc21` (configuration not stated), the TGI in [1], in [2], in experiment [3], in experiment [4], in [5] and in experiment [6] was over 100 µM each time. In addition, the TGI in experiment [7], in experiment [8] and in experiment [9] was over 100 µM in each case.
As to `COC(=O)C(=O)CC(=O)CCn1[nH]c(=O)c(Cl)c(Cl)c1=O`, the TGI in experiment [1], in experiment [2], in experiment [3], in [4], in experiment [5] and in [6] was over 100 µM in each case. The TGI in [7], in [8] and in [9] was over 100 µM each time.
Take `COc1cc(NS(=O)(=O)c2ccc(C)cc2)c2nccnc2c1`: the TGI was 35.1 µM in experiment [1]; over 100 µM in experiment [2]; over 100 µM in experiment [3]; over 100 µM in experiment [4]; over 100 µM in [5]; over 100 µM in experiment [6]. Besides, the TGI in experiment [7], in experiment [8] and in [9] was over 100 µM each time.
For `N#C/C(=C/c1cccc(Oc2ccccc2)c1)c1ccccc1`, the TGI in experiment [1], in experiment [2], in experiment [3], in experiment [4], in [5] and in experiment [6] was over 100 µM in each case. Moreover, the TGI in [7] and in [9] was over 100 µM each time.
For the compound `CCC[CH2][Sn]([CH2]CCC)([O]C(=O)CN)[O]C(=O)CN`, the GI50 in [1] was 36.7 µM; in [2] it was 38.4 µM; in [3], over 100 µM; in experiment [4], 16 µM; in [5], 93.3 µM; in experiment [6], 22.1 µM. Further, the figures for the GI50 in [7], in experiment [8] and in [9] were 21.1 µM, 7.25 µM and 69 µM, respectively. The TGI in experiment [1] was over 100 µM; in experiment [2], over 100 µM; in experiment [3] it was over 100 µM; in [4], 51.2 µM; in experiment [5], over 100 µM; in experiment [6] it was 59.7 µM. Besides, the TGI is 70.2 µM in [7], over 100 µM in [8] and over 100 µM in experiment [9].
Regarding `C[C@]12CC=CC(=O)[C@@]1(C)CCC(=O)C2`, the TGI in experiment [1], in [2], in [3], in experiment [4], in [5] and in experiment [7] was over 100 µM in each case. Besides, the TGI in [8] and in experiment [9] was over 100 µM each time.
Regarding `Cc1ccc(S(=O)(=O)OC2CC=CC2)cc1`, the TGI in experiment [1], in experiment [2], in [3], in [4], in [5] and in experiment [6] was over 100 µM in each case. Further, the TGI in [8] and in experiment [9] was over 100 µM each time.
Consider `Cc1ccc(S(=O)(=O)N/N=C2\CCCCC23CCC(=O)NC3)cc1` (configuration not stated), for which the TGI in experiment [1], in experiment [2], in experiment [3], in experiment [5], in experiment [8] and in experiment [9] was over 100 µM in each case.
`CC(=O)C1C(c2ccccc2)C2(C)OC(=O)C(C#N)C12C` (configuration not stated): the TGI in experiment [1], in [2], in experiment [3], in experiment [4], in [6] and in experiment [7] was over 100 µM each time. The same compound showed a TGI in [9] of over 100 µM.
On to `CCCCCCCCCCCCCP(=O)(O)O`, for which the TGI in experiment [1], in experiment [2], in experiment [3], in experiment [4], in [5] and in experiment [6] was over 100 µM each time. The TGI in [7], in experiment [8] and in experiment [9] was over 100 µM throughout.
Regarding `[N-]=[N+]=NCCCn1c2c(c3ccc([N+](=O)[O-])cc3c1=O)C(=O)c1ccccc1-2`, the GI50 is over 100 µM in experiment [1]; 99.2 µM in [2]; over 100 µM in experiment [4]; 8.66 µM in experiment [6]; 9.25 µM in experiment [7]; over 100 µM in experiment [8]. The GI50 in experiment [10] is 3.57 µM. Also, the TGI in experiment [1], in experiment [2], in experiment [4], in experiment [6], in experiment [7] and in experiment [8] was over 100 µM in each case. In addition, the TGI is 43.2 µM in experiment [10] and 0.061 µM in [9].
For the compound `NC1=NN(c2ccccc2)C(=O)C1C(=O)CCC(=O)Nc1cccc(Cl)c1` (configuration not stated), the TGI in experiment [1], in experiment [2], in [3], in experiment [4], in experiment [5] and in experiment [6] was over 100 µM in each case. Moreover, the TGI in [7], in [8] and in experiment [9] was over 100 µM throughout.
Regarding `Cc1cn(C2CC(OC(=O)c3ccc(Cl)cc3)C(COC(=O)c3ccc(Cl)cc3)O2)c(=O)[nH]c1=O` (configuration not stated), the TGI in [1], in experiment [2], in [3], in [4], in experiment [6] and in experiment [7] was over 100 µM in each case. The TGI in [8] and in experiment [9] was over 100 µM each time.
Consider `COc1ccc2nc3cc(Cl)ccc3c(Sc3ccc([N+](=O)[O-])cc3C)c2c1`, for which the TGI in [1], in experiment [2], in [3], in experiment [4], in experiment [5] and in experiment [6] was over 100 µM throughout. Also, the TGI in [7], in [8] and in experiment [9] was over 100 µM each time.

Source of the values: PubChem BioAssay (NCI).
